Patent publication US20250179040A1, “HISTAMINE H3 RECEPTOR ANTAGONISTS AND THEIR PHARMACEUTICAL USES” (HANGZHOU BIO-SINCERITY PHARMA-TECH CO., LTD., priority 2022, published 2025)

Legend:
hERG channel = hERG channel (Homo sapiens, UniProt Q12809); test: in vitro; conditions: Average inhibition rate (%) on hERG channel
From the text: In cardiomyocytes, inhibition of the delayed rectifier potassium current (IKr) channel protein encoded by the human Ether-a-go-go Related Gene (hERG) is the most important mechanism by which drugs lead to prolongation of the QT interval. hERG is characterized by a specific molecular structure, which allows it to be inhibited by different structures, leading to severe arrhythmias. Statistically, 25-40% of lead compounds show varying degrees of hERG-related toxicity. Therefore, early evaluation of the effects of compounds on hERG is crucial in the drug development process.
The inhibition rate of compounds on hERG channels was examined by manual membrane clamp technique on HEK293 cell line which is stably expressing hERG ion channels.

CCI model rats = test: Analgesic effect, chronic constriction injury (CCI) model, mechanical withdrawal threshold; assay type: in vivo, SD rats
From the text: Exposing the sciatic nerve on male SD rats' (180-200 g) right hind leg, in the anterior segment where the sciatic nerve is about to bifurcate, use sterile chromic gut thread (No. 4, 0.15 mm in diameter) to ligate 4 loops loosely, with each loop 1-2 mm apart, and suture the muscle and skin to establish the chronic constriction injury (CCI) model. In the sham-operated group, only the sciatic nerve was exposed without ligation, and the muscle and skin were sutured. The mechanical withdrawal threshold was detected by electronic analgesia meter (IITC-2391) on the 7th day for 2 consecutive days.
The CCI model rats with stabilized mechanical withdrawal thresholds were randomly divided into five groups, named model group (model), pregabalin group (Pre, 30 mg/kg), BIOS-B-12 compound group (3 mg/kg), BIOS-B-12 compound group (1 mg/kg), and BIOS-B-12 compound group (0.3 mg/kg), and were administered at 1 mL/100 g by gavage, and the same column of saline was gavaged in Sham an model group. The basic value was determined before drug administration, and the mechanical withdrawal thresholds were detected at 0.5 h, 1 h, 2 h, 4 h, 6 h, and 24 h after a single drug administration, and the p value was calculated by ANOVA with T-test.
The CCI model rats with stabilized mechanical withdrawal thresholds were randomly divided into three groups, named model group (model), pregabalin group (Pre, 30 mg/kg), and BIOS-B-14 compound group (1 mg/kg), and were administered at 1 mL/100 g by gavage, and the same column of saline was gavaged in Sham and model group. The basic value was determined before drug administration, and the mechanical withdrawal thresholds were detected at 0.5 h, 1 h, 2 h, 4 h, and 6 h after a single drug administration, and the p value was calculated by ANOVA with T-test.

histamine H3 receptor = histamine H3 receptor (Homo sapiens, UniProt Q9Y5N1); test: FLPPR assay, antagonistic activity on histamine H3 receptor; assay type: cell-based
Procedure: The FLPPR assay (NIH Assay Guidance Manual: HTS Assay Validation-Section 4.3. Analysis (Potency), htpps://www.ncbi.nlm.nih.gov/books/NBK83783) was performed using SUVN-G3031 as a positive control, and 21 target compounds were tested for the antagonistic activity target to histamine H3 receptor.

[1] = test system: histamine-induced scratching; test: Antipruritic ability, histamine-induced scratching in mice; assay type: in vivo, C57BL/6J mice
Procedure: The C57BL/6J male mice, with 6-8 weeks old, were randomly divided into model group (Model), BIOS-B-12 compound group (10 mg/kg), BIOS-B-18 compound group (10 mg/kg) and dexamethasone group (Dex, 3 mg/kg), with 7 animals in each group. The mice were injected subcutaneously with 500 μg/50 μL histamine at the back of the neck after the administration of dexamethasone for 1 h, BIOS-B-12 for 4 h, and BIOS-B-18 for 1 h, respectively, and immediately observed for 30 min. The number of scratched was recorded and the inhibition rate was calculated as (Model-Compound)/Model×100%.

[2] = BIOS-B-12 3, 1, 0.3 mg/kg vs pregabalin 30 mg/kg, FIG. 1 study

Chain of histamine H3 receptor (Q9Y5N1 whole entry, species assumed): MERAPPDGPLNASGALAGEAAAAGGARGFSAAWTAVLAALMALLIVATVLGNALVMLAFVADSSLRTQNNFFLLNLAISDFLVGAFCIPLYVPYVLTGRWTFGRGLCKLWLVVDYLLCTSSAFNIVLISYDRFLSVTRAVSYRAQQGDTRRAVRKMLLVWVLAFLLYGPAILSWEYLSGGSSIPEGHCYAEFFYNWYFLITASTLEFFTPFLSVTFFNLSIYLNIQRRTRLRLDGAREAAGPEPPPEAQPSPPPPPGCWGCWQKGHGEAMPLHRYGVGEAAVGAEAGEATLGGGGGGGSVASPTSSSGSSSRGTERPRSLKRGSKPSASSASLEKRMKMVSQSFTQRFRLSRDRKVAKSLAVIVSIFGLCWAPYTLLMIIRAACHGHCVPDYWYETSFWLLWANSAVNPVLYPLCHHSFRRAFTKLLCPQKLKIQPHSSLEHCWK
Chain of hERG channel (Q12809 whole entry): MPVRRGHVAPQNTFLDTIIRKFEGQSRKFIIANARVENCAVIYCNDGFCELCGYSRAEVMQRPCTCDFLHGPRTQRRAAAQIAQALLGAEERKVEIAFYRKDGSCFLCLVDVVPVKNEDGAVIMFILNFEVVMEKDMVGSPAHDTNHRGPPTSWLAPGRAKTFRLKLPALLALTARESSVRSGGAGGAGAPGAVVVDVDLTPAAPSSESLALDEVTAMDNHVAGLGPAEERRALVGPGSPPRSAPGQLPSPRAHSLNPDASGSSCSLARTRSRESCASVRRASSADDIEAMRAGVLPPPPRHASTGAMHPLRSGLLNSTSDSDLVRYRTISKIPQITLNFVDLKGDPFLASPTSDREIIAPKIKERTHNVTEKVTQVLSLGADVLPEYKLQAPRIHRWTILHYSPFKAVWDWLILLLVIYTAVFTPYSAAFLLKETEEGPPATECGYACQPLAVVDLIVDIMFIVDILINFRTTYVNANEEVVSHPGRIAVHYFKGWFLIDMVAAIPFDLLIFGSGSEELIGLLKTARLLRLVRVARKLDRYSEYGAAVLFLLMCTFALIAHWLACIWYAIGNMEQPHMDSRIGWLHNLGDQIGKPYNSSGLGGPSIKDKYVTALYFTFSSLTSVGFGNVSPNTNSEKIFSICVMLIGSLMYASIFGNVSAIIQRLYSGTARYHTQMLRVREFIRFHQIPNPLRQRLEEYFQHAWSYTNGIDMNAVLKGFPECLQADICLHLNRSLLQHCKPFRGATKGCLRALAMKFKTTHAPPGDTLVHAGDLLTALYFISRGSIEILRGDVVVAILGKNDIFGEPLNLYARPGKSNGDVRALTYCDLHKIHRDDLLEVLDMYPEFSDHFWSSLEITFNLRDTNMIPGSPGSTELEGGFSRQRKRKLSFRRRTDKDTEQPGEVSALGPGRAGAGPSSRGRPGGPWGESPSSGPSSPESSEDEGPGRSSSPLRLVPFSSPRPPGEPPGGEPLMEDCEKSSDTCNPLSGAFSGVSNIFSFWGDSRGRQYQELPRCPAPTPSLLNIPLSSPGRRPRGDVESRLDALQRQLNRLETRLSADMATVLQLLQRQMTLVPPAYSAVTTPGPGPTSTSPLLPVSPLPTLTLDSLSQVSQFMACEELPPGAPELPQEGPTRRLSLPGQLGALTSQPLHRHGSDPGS

Compound: O=C(CN1CCN(C2CCC2)CC1)Nc1ccc(OC2CC(N3CCCCC3)C2)cc1 (stereo not drawn) [BIOS-B-12, 2-(4-cyclobutylpiperazin-1-yl)-N-(4-(3-(piperidin-1-yl)cyclobutoxy)phenyl)acetamide]
- inhibition at 10 µM (hERG channel): 2.06%
- mechanical withdrawal thresholds vs model group (CCI model rats; 0.3 mg/kg single dose by gavage, 1 h to 2 h after administration, P<0.05, FIG. 1): significantly different
- mechanical withdrawal thresholds vs model group (CCI model rats; 1 mg/kg single dose by gavage, 0.5 h to 6 h after administration, P<0.01, FIG. 1): significantly different
- mechanical withdrawal thresholds vs model group (CCI model rats; 3 mg/kg single dose by gavage, 0.5 h to 24 h after administration, P<0.01, FIG. 1): significantly different
- level of analgesia compared with pregabalin (CCI model rats; [2]): superior to that of pregabalin
- period of analgesia time compared with pregabalin (CCI model rats; [2]): longer period of analgesia time
- mechanical withdrawal thresholds in the CCI model rats, dose dependence (CCI model rats; single dose at 3, 1 and 0.3 mg/kg, FIG. 1): dose-dependently increasing
- inhibition at 0.005 µM (histamine H3 receptor; read-out: % Inh-AVERAGE @ 5 nM): 99.1%
- inhibition at 0.05 µM (histamine H3 receptor; read-out: % Inh-AVERAGE @ 50 nM): 98.8%
- number of histamine-induced scratched in mice ([1]; 10 mg/kg): reduced
- antipruritic effect compared with positive control dexamethasone ([1]; 10 mg/kg vs dexamethasone 3 mg/kg): more effective than the positive control
- Inhibition Rate (%) of number of scratches ([1]; BIOS-B-12 10 mg/kg 4 h, BIOS-B-18 10 mg/kg 1 h, Dex 3 mg/kg 1 h before histamine 500 μg/50 μL s.c., observed 30 min, (Model-Compound)/Model×100%): 36.6%
